Laboratory results published in paper PMC7733237 (Organic & biomolecular chemistry, 2009).

System: PBM cells
Assay: Cytotoxicity in uninfected PHA-stimulated human PBM cells
Conditions: read-out: Cytotoxicity (IC50) PBM cells, 6 days, cell growth

## Cc1cn([C@H]2C[C@H](N=[N+]=[N-])[C@@H](CO)O2)c(=O)[nH]c1=O [AZT, 3′-azido-3′-deoxythymidine]
  IC50: > 100 µM
